Reference: US12247106B2, “Onium-functionalized siloxanes” (Henkel AG & Co. KGaA, priority 2019, dated 2025)

Columns and labels:
Assay in all cases: Kirby-Bauer Test (Zone of Inhibition), agar diffusion
Format in all cases: cell-based
[1] = system: Aspergillus brasiliensis (ATCC 16404)
Procedure: (§1) Kirby-Bauer Test (Zone of Inhibition):
(§2) The Kirby-Bauer Test is also known as Agar Diffusion Test and can be used for determination of antimicrobial activity in combination with diffusion properties. […] A suspension of the bacterial or fungal strain of interest is spread evenly over the face of a sterile agar plate. The antimicrobial test substrate (preferential liquid aggregation state) is applied to the center of the agar plate onto a small filter paper. The agar plate is incubated for a defined time at a temperature suitable for the test microorganisms. If the test substrate leaches from the filter paper into the agar and it further contains antimicrobial activity, a zone of inhibition is formed around the filter paper.

[2] = system: Staphylococcus aureus (ATCC 6538)
Procedure: as §1, §2

[3] = system: Exophiala dermatitidis (isolate)
Procedure: as §1, §2

[4] = dilution ratio 1:10, maximum 45 mm
[5] = dilution ratio 1:100, maximum 45 mm

SMILES	Zone of Inhibition ([1]; undiluted, maximum 45 mm) [mm]	Zone of Inhibition ([2]; undiluted, maximum 45 mm) [mm]	Zone of Inhibition ([3]; undiluted, maximum 45 mm) [mm]	Zone of Inhibition [1, 4] [mm]	Zone of Inhibition [1, 5] [mm]	Zone of Inhibition [2, 4] [mm]	Zone of Inhibition [2, 5] [mm]	Zone of Inhibition [3, 4] [mm]	Zone of Inhibition [3, 5] [mm]
CCCCn1ccnc1 [1-Butyl-1H-imidazole]	5.0	11.0	15.0						
Cn1ccnc1 [1-methyl-1H-imidazole]	3.5	6.5	12.3	0.0	0.0	0.0	0.0	0.0	0.0
c1ccncc1 [Pyridine]	0.0	1.0	1.0	0.0	0.0	0.0	0.0	0.0	0.0
